Experimental findings from ChEMBL document CHEMBL3526069, “Human pharmacokinetic prediction of UDP-glucuronosyltransferase substrates with an animal scale-up approach” (Drug Metab Dispos, 2011) are described below.

Data set [1] can be described thus: in vitro. Conditions: dog.
Description: Ratio of drug level in blood to plasma in dog
Data set [2] can be described thus: in vitro. Conditions: human, plasma.
Description: (§1) Fraction unbound in human plasma by ultracentrifugation method
The nature of data set [3]: Drug metabolism in gallbladder-cannulated mouse assessed as glucuronide concentration in bile and urine at 0.2 mg/kg, iv up to 24 hrs by LC/MS/MS analysis. Also noted: dose 0.2 mg/kg, route intravenous. To be noted: in vivo. It is filed as ADME, organism-based.
The nature of data set [4]: clinical. To be noted: human, in vivo.
Data set [5] in a line: Drug metabolism in bile duct-cannulated dog assessed as glucuronide concentration in bile and urine at 0.2 mg/kg, iv up to 24 hrs by LC/MS/MS analysis. Type of data set: ADME, organism-based, Canis lupus familiaris. Conditions: in vivo. Also noted: dose 0.2 mg/kg, route intravenous.
Data set [6] is described as follows: Plasma clearance in po dosed human.
The nature of data set [7]: in vitro. To be noted: rat.
Description: Ratio of drug level in blood to plasma in rat
Data set [8] is described as follows: in vitro. Conditions: rat, plasma.
Description: (§2) Fraction unbound in rat plasma by ultracentrifugation method
The nature of data set [9]: Drug metabolism in bile duct-cannulated rat assessed as glucuronide concentration in bile and urine at 0.2 mg/kg, iv up to 24 hrs by LC/MS/MS analysis. It is filed as ADME, organism-based. Also on record: dose 0.2 mg/kg, route intravenous. To be noted: in vivo.
Data set [10] is described as follows: in vitro. Conditions: rhesus monkey, plasma.
Description: Fraction unbound in monkey plasma by ultracentrifugation method
Data set [11] is described as follows: in vitro. Conditions: human.
Description: Ratio of drug level in blood to plasma in human
Data set [12] is described as follows: in vitro. Conditions: dog, plasma.
Description: Fraction unbound in dog plasma by ultracentrifugation method
The nature of data set [13]: in vitro. To be noted: mouse, plasma.
Description: Fraction unbound in mouse plasma by ultracentrifugation method
A short description of data set [14]: Drug metabolism in bile duct-cannulated cynomolgus monkey assessed as glucuronide concentration in bile and urine at 0.2 mg/kg, iv up to 24 hrs by LC/MS/MS analysis. To be noted: in vivo.
Data set [15] can be described thus: in vitro. To be noted: rhesus monkey.
Description: Ratio of drug level in blood to plasma in monkey
Data set [16] is described as follows: in vitro. To be noted: mouse.
Description: Ratio of drug level in blood to plasma in mouse
The nature of data set [17]: Plasma clearance in human.
A short description of data set [18]: clinical. To be noted: human, in vivo. The source holds these as a separate data set.
Description: (§3) Volume of distribution at steady state in human
The nature of data set [19]: Drug metabolism in human assessed as glucuronide concentration in urine.
Data set [20] concerns Plasma. To be noted: human.
Description: as §1
The species named for data set [21] is Homo sapiens. To be noted: in vivo.
Description: as §3
The subject of data set [22] is Plasma. To be noted: rat.
Description: as §2
Data set [23] is filed under the species Homo sapiens. To be noted: in vivo. The source holds these as a separate data set.

On to `CCCc1nc2c(C)cc(-c3nc4ccccc4n3C)cc2n1Cc1ccc(-c2ccccc2C(=O)O)cc1`, for which the blood plasma ratio in “in vitro [1]” was 1.18; in “in vitro [7]”, 1.25; in “in vitro [11]”, 1.24; in the data set “in vitro [15]” it was 1.16; in “in vitro [16]”, 0.54. Also, the fraction unbound in the data set “in vitro [2]” is 0.003; in “in vitro [8]”, 0.007; in the data set “in vitro [10]” it was 0.008; in the data set “in vitro [12]”, 0.018; in “in vitro [13]”, 0.071. The Fm is reported as 0.118 in data set [3], 0.99 in [5], 0.396 in data set [9] and 0.47 in [14]. Besides, in the data set “clinical [4]”, the half-life is 7.29 h. Further, in [6] (plasma), the CL/F stood at 17.8 mL/min/kg.
Consider `O=C([O-])Cc1ccccc1Nc1c(Cl)cccc1Cl.[Na+]` [DICLOFENAC SODIUM], for which the blood plasma ratio in “in vitro [1]” amounted to 1.01; in “in vitro [7]”, 1.57; in the data set “in vitro [11]”, 0.71; in “in vitro [15]”, 1.01; in the data set “in vitro [16]” it was 0.67. The clearance in [17] (in vivo) is 3.5 mL/min/kg. Moreover, the fraction unbound in “in vitro [2]” amounted to 0.003; in the data set “in vitro [8]”, 0.006; in the data set “in vitro [10]” it was 0.005; in the data set “in vitro [12]”, 0.003; in the data set “in vitro [13]”, 0.005. The Fm in data set [3] came to 0.261; in data set [5], 0.522; in data set [9], 0.065; in [19], 0.15; in data set [14] it was 0.29. Besides, the half-life in the data set “clinical [4]” is 0.726 h. The Vd in the data set “clinical [18]” was 0.22 L/kg. The CL/F in data set [6] (in vivo) was found to be 6.48 mL/min/kg.
Consider `NS(=O)(=O)c1cc(C(=O)O)c(NCc2ccco2)cc1Cl` [FUROSEMIDE], for which the Fm in [3] was 0.005; in data set [5], 0.17; in [9] it was 0.052; in data set [19] it was 0.14; in [14], 0.671.
As to `Cc1ccc(C)c(OCCCC(C)(C)C(=O)O)c1` [GEMFIBROZIL], the blood plasma ratio amounted to 0.64 in “in vitro [1]”; 0.83 in “in vitro [7]”; 0.75 in “in vitro [11]”; 0.67 in the data set “in vitro [15]”; 0.68 in “in vitro [16]”. The compound also returned a clearance in data set [17] (in vivo) of 1.7 mL/min/kg. The fraction unbound was 0.005 in the data set “in vitro [2]”; 0.01 in “in vitro [8]”; 0.007 in the data set “in vitro [10]”; 0.004 in “in vitro [12]”; 0.041 in “in vitro [13]”. Moreover, the Fm in [3] is 0.173; in data set [5] it was 0.69; in data set [9] it was 0.366; in data set [19], 0.4; in data set [14], 0.35. In addition, in the data set “clinical [4]”, the half-life was 7.6 h. In “clinical [18]”, this compound registered a Vd of 1.11 L/kg. This compound gave a CL/F in data set [6] (in vivo) of 1.73 mL/min/kg.
With `CN(C)CCCN1c2ccccc2CCc2ccccc21.Cl` [IMIPRAMINE HYDROCHLORIDE], the fraction unbound in the data set “in vitro [2]” is 0.104; in “in vitro [10]”, 0.03; in “in vitro [13]”, 0.063. This compound also showed a half-life in “clinical [4]” of 10.7 h. The Fm in data set [5] is 0.005; in data set [9], 0.014; in data set [19], 0.1; in data set [14], 0.04. This compound also yielded a Vd in “clinical [18]” of 12 L/kg.
In the case of `COc1ccc2c(c1)c(CC(=O)O)c(C)n2C(=O)c1ccc(Cl)cc1` [INDOMETHACIN], the blood plasma ratio amounted to 0.65 in “in vitro [1]”; 0.97 in “in vitro [7]”; 0.98 in “in vitro [11]”; 1.06 in the data set “in vitro [15]”; 0.46 in the data set “in vitro [16]”. In the data set on Plasma [20], this compound gave a Fu of 0.1. In data set [17] (plasma), this compound came in with a clearance of 1.58 mL/min/kg. For the same compound, the Fm was 0.001 in data set [3]; 0.01 in data set [5]; 0.004 in [9]; 0.217 in data set [19]; 0.94 in [14]. This compound showed a half-life in the data set “clinical [4]” of 6.77 h. In “clinical [18]”, this compound registered a Vd of 0.925 L/kg. The same compound yielded a CL/F in [6] (plasma) of 1.58 mL/min/kg. For the same compound, the fraction unbound was 0.004 in “in vitro [8]”, 0.005 in the data set “in vitro [10]”, 0.005 in “in vitro [12]” and 0.009 in the data set “in vitro [13]”.
Regarding `CC(C(=O)O)c1cccc(C(=O)c2ccccc2)c1` (stereo not drawn) [KETOPROFEN], the Fm in data set [3] was 0.01; in data set [5] it was 0.163.
Consider `C[C@H]1COc2c(N3CCN(C)CC3)c(F)cc3c(=O)c(C(=O)O)cn1c23.Cl` [LEVOFLOXACIN HYDROCHLORIDE], for which the clearance in data set [17] (plasma) was found to be 1.9 mL/min/kg. Further, the fraction unbound was found to be 0.784 in “in vitro [2]”, 0.826 in “in vitro [8]”, 0.871 in “in vitro [10]” and 0.922 in “in vitro [12]”. For the same compound, the Fm is on record as 0.229 in data set [3]; 0.061 in data set [5]; 0.644 in data set [9]; below 0.015 in data set [19]; 0.82 in data set [14]. In “clinical [4]”, this compound showed a half-life of 7.3 h. Also, the Vd in “clinical [18]” is 1.2 L/kg. Further, the CL/F in data set [6] (plasma) was 1.9 mL/min/kg.
Regarding `O=C1Nc2ccc(Cl)cc2C(c2ccccc2Cl)=NC1O` (stereo not drawn) [LORAZEPAM], the blood plasma ratio was 0.77 in “in vitro [1]”; 1.09 in “in vitro [7]”; 1.14 in “in vitro [11]”; 0.87 in “in vitro [15]”; 0.92 in the data set “in vitro [16]”. Moreover, in data set [17] (plasma), the clearance came to 1.21 mL/min/kg. Further, the fraction unbound was found to be 0.057 in the data set “in vitro [2]”; 0.09 in the data set “in vitro [8]”; 0.103 in the data set “in vitro [10]”; 0.073 in “in vitro [12]”; 0.158 in “in vitro [13]”. Moreover, the Fm in [3] came out at 0.436; in data set [5], 0.785; in data set [9] it was 0.085; in data set [19], 0.81; in data set [14], 0.53. The half-life in “clinical [4]” is 12.4 h. In [6] (plasma), this compound returned a CL/F of 1.21 mL/min/kg.
Consider `COc1c(C)c2c(c(O)c1C/C=C(\C)CCC(=O)O)C(=O)OC2` [MYCOPHENOLIC ACID], for which the blood plasma ratio in “in vitro [1]” was found to be 0.75; in the data set “in vitro [7]”, 0.94; in “in vitro [11]” it was 0.69; in “in vitro [15]” it was 0.97; in the data set “in vitro [16]” it was 0.81. In addition, the Fu in the data set with Plasma [20] worked out at 0.003. This compound had a clearance in data set [17] (plasma) of 3.31 mL/min/kg. Besides, the Fm in [3] worked out at 0.966; in data set [5], 0.99; in data set [9], 0.096; in [19] it was 0.9; in data set [14], 0.54. Moreover, the half-life in “clinical [4]” is 16.6 h. In the data set “clinical [18]”, the Vd came out at 4.75 L/kg. In data set [6] (plasma), this compound yielded a CL/F of 3.54 mL/min/kg. In addition, the fraction unbound in “in vitro [8]” came out at 0.004; in the data set “in vitro [10]”, 0.011; in the data set “in vitro [12]”, 0.003; in the data set “in vitro [13]”, 0.028.
In the case of `O=C(c1ccc(OCCN2CCCCC2)cc1)c1c(-c2ccc(O)cc2)sc2cc(O)ccc12` [RALOXIFENE], the clearance in data set [17] (plasma) was determined as 14.7 mL/min/kg. In addition, the fraction unbound is 0.002 in “in vitro [2]”, 0.004 in “in vitro [10]”, 0.003 in “in vitro [12]” and 0.006 in the data set “in vitro [13]”. For the same compound, the Fm in data set [3] was 0.243; in data set [5], 0.196; in [9], 0.214; in [19] it was 0.9; in data set [14], 0.38. The compound further registered a Vdss in the data set listed under Homo sapiens [21] of 47 L/kg. For the same compound, the Fu in the data set on Plasma [22] was determined as 0.004. This compound also had a t1/2 in the data set filed under Homo sapiens [23] of 36.9 h.
In the case of `Cc1cn([C@H]2C[C@H](N=[N+]=[N-])[C@@H](CO)O2)c(=O)[nH]c1=O` [ZIDOVUDINE], the fraction unbound is 0.695 in “in vitro [2]”, 0.734 in “in vitro [8]”, 0.827 in “in vitro [12]” and 0.896 in “in vitro [13]”. Besides, the Fm in [3] worked out at 0.034; in [5], 0.134; in [9], 0.02; in data set [19] it was 0.85; in [14], 0.08. This compound showed a half-life in “clinical [4]” of 0.832 h. In addition, the CL/F in data set [6] (plasma) came to 33.3 mL/min/kg.

By fraction unbound is commonly meant the share of the substance not bound to proteins or other matrix. For orientation: half-life means the time needed for the level to fall by half in the phase considered. By CL/F is commonly meant the apparent clearance, not corrected for the fraction that reaches the circulation. The term clearance denotes a measure of how efficiently the substance is removed, as volume per time. The Vd is the apparent volume that relates the amount in the body to the concentration in plasma or blood. Usually Vdss stands for a proportionality between amount in the body and measured concentration, not a real space.
